Data on nine substances can be found in patent US8691528B2, “Cell penetrating peptide” (Mitsubishi Tanabe Pharma Corporation, priority 2005, dated 2014).

Common to all, as to assay type: cell-based
In assay [1] the test system is CHO cells. The assay can be described thus: Confocal microscopic analysis of translocation of fluorescence-labeled peptides into CHO cells. The following applies: for intracellular translocation profile compared with PTD1: Example 5-2, 50 μM to 12.5 μM (FIG. 19: 25 μM). Here is the method:
(§1) Three kinds of cells were used for incorporating the peptides: CHO cells (ATCC NO. CCL-61), HeLa cells, and Jurkat cells. 10^4 CHO cells and HeLa cells and 10^5 Jurkat cells were separately inoculated to a 96-well plate, and cultured for 2 or 3 days. Subsequently, when the cells became confluent, each peptide solution was added to each type of cell, and the cells were incubated for 1 hour. After each type of cell was washed with PBS three times, 100 μL of 0.25% trypsin-1 mM EDTA solution was added, and trypsinization was performed at room temperature for 5 minutes. After 400 μL of PBS (10% FCS) was added to neutralize the trypsin, the cells were washed with 1 mL of HBSS (Hanks' Balanced Salt Solution/produced by Invitrogen) three times. After the washing, the cells were suspended in 50 μL of HBSS and analyzed using a confocal microscope. Measurements and analysis were performed using a confocal differential interference laser microscope system (Bio-Rad, Radience2100/Green He-Ne, 488 nm, microscope: Nikon, ECLIPSE E600).
Furthermore, CHO cells were inoculated to a slide chamber (produced by Nunc), 25 μM of each of the KSH1 peptide and positive control was added to the CHO cells, and the intracellular transferability thereof was determined using a confocal microscope.
For KSH2 to KSH10 (SEQ ID NOS:35 to 43 in the sequence listing), a test of translocation into CHO cells was performed in the same manner as Example 1-2, and confocal microscopic analysis was performed. Used for positive control were a PTD sequence derived from HIV TAT (SEQ ID NO:50 in the sequence listing) and the KSH1 peptide; used for negative control was a peptide sequence lacking intracellular transferability (SEQ ID NO:57 in the sequence listing).
In the confocal microscopic analysis, a background correction was performed using cells to which the negative control peptide (SEQ ID NO:57 in the sequence listing) had been added. Thereafter, the positive control PTD1 peptide (SEQ ID NO:50 in the sequence listing) was added, and fluorescence in the cells was examined.
Regarding novel PTD sequence, each peptide was analyzed in a series of 2-fold dilutions at three levels from 50 μM to 12.5 μM. […] The PTD candidate sequences identified here clearly retained the capability of intracellular translocation.

Assay [2] has as its system HeLa cells. The assay can be described thus: Confocal microscopic analysis of intracellular translocation of synthetic peptides in HeLa cells. Here is the method:
as §1
In HeLa cells as with CHO cells, intracellular translocation experiments of synthetic peptides of modified PTD sequences were performed by confocal microscopic analysis.

The test system of assay [3] is CHO cells, HeLa cells, and Jurkat cells. The assay can be described thus: Confocal microscopic analysis of intracellular translocation of fluorescence-labeled peptides. The settings on record: fluorescence-labeled peptide, confocal microscope.
From the text: With the PTD derived from HIV TAT protein shown by SEQ ID NO:50 in the sequence listing as the positive control (in FIG. 1 to FIG. 3, denoted by “Positive” or “TAT”), and a mutant of the TAT-derived PTD shown by SEQ ID NO:51 in the sequence listing, reported by Ulo Langel et al. (Cell-Penetrating Peptides: Processes and Applications, Series: Pharmacology and Toxicology: Basic and Clinical Aspects Volume:3, 2002), as the negative control (in FIG. 1, denoted by “Negative”), the peptides of the 11 sequences selected in Example 1-1 were evaluated.
The peptides of the 11 sequences selected in Example 1-1 were synthesized by the solid phase method, and fluorescently labeled by coupling 5,6-Carboxyfluorescein to the N-terminus of each peptide. Furthermore, the peptides were purified by HPLC to obtain a purity of 70% or more. Subsequently, each fluorescently labeled peptide was dissolved in 10% Dimethyl Sulfoxide (DMSO) to obtain 1 mM (hereinafter referred to as peptide solution).
as §1
Of the novel PTD sequences found in Example 5, the KSH2 peptide is highly capable of translocating eGFP into cells; an attempt was made to modify the KSH2 peptide. The KSH2-1 to KSH2-4 peptides (SEQ ID NOS:44 to 47 in the sequence listing) were synthesized, fluorescently labeled, purified and dissolved in the same manner as Example 1-2, a test of translocation into CHO cells was performed, and confocal microscopic analysis was performed.
First, two cases were examined: two cysteines were substituted with alanine (KSH2-1) or with tryptophan (KSH2-2). FITC-labeled peptides were synthesized, and their intracellular translocation efficiencies were examined using CHO, HeLa, and Jurkat cells (FIG. 21, the peptide addition concentration was 50 μM, 25 μM or 12.5 μM).

Assay [4] relates to CHO cells. Description: Test of translocation of fluorescence-labeled peptides into CHO cells (FACS and confocal microscopic analysis). Here is the method: Each peptide solution, adjusted to 1 mM, was diluted with a medium to three levels, 100 μM, 50 μM, and 25 μM, and added to cells. Three kinds of cells were used: CHO cells, HeLa cells, and Jurkat cells. After each peptide solution was added, the cells were incubated for 1 hour. After the cells were washed with PBS three times, 100 μL of 0.25% trypsin-1 mM EDTA solution was added, and trypsinization was performed at room temperature for 5 minutes. After 400 μL of PBS (10% FCS) was added to stop the trypsinization, the cells were washed with 1 mL of HBSS three times. After the washing, the cells were suspended in 500 μL of PBS (10% FCS) and subjected to flowcytometry (hereinafter, FACS) analysis using FACS Calibur (Becton Dickinson).
Each peptide was synthesized, fluorescently labeled, purified and dissolved in the same manner as Example 1-2, a test of translocation into CHO cells was performed, and an evaluation was performed by confocal microscopic analysis and FACS. FACS analysis was performed in the same manner as Example 1-3. For the KSH1 peptide and modified PTD sequences, i.e., KSH1-1 to KSH1-9 peptides (SEQ ID NOS:1 to 9 in the sequence listing), fluorescence intensities determined by FACS analysis are shown in FIG. 6. The peptide addition concentrations were 50 μM, 25 μM, 12.5 μM and 6.5 μM.
To determine which amino acids are important to the intracellular translocation, comprehensive alanine substitution was performed on the basis of KSH1-1 to design KSH1-11 (SEQ ID NO:11 in the sequence listing) to KSH1-23 (SEQ ID NO:22 in the sequence listing) and KSH1-35 (SEQ ID NO:32 in the sequence listing) (FIG. 7). Each peptide was synthesized, fluorescently labeled, purified and dissolved in the same manner as Example 1-2, a test of translocation into CHO cells was performed, and an evaluation was performed by confocal microscopic analysis and FACS. FACS analysis was performed in the same manner as Example 1-3. For KSH1 and modified PTD sequences, i.e., KSH11-11 to 23 and KSH1-35, fluorescence intensities determined by FACS analysis are shown in FIG. 8. The peptide addition concentrations were 50 μM, 25 μM, 12.5 μM and 6.5 μM.
Each peptide was synthesized, fluorescently labeled, purified and dissolved in the same manner as Example 1-2, a test of translocation into CHO cells was performed, and an evaluation was performed by confocal microscopic analysis and FACS analysis. FACS analysis was performed in the same manner as Example 1-3. For KSH1 and modified PTD sequences, i.e., KSH11-24 to 1-26 and KSH1-28 to 1-30, fluorescence intensities determined by FACS analysis are shown in FIG. 10. The peptide addition concentrations were 50 μM, 25 μM, 12.5 μM and 6.5 μM.
Each peptide was synthesized, fluorescently labeled, purified and dissolved in the same manner as Example 1-2, a test of translocation into CHO cells was performed, and an evaluation was performed by confocal microscopic analysis and FACS analysis. FACS analysis was performed in the same manner as Example 1-3. For KSH1 and modified PTD sequences, i.e., KSH1-27, KSH1-33, KSH1-34 and KSH1-36, fluorescence intensities determined by FACS analysis are shown in FIG. 12. The peptide addition concentrations were 50 μM, 25 μM, 12.5 μM and 6.5 μM.
Each peptide was synthesized, fluorescently labeled, purified and dissolved in the same manner as Example 1-2, and an intracellular translocation test in CHO cells was performed by FACS analysis. Used for positive control were a PTD sequence derived from HIV TAT ([…] in the sequence listing) and the KSH1 peptide; used for negative control was a peptide sequence lacking intracellular transferability (SEQ ID NO:57 in the sequence listing).

In assay [5] the test system is Jurkat cells. The assay can be described thus: Confocal microscopic analysis of intracellular translocation of synthetic peptides in Jurkat cells. Here is the method: as §1
In Jurkat cells as well, intracellular translocation experiments of synthetic peptides of modified PTD sequences were performed by confocal microscopic analysis.

For assay [6], the system named is CHO cells. Description: Test of translocation of fluorescence-labeled peptides into CHO cells (FACS and confocal microscopic analysis). The settings on record: FACS; between 25 μM and 6.15 μM.
Where [7] appears, read: 50 μM, 25 μM, 12.5 μM and 6.5 μM.

Entries after “also recorded” stand apart in the source; their conditions may differ.

For “KSH7: novel PTD sequence from the 7-time-concentrated library of Jurkat cells (QQHLLIAINGYPRYN; Designed peptide to act as PTD(Protein Transduction Domain))”, the “intracellular translocation profile compared with PTD1” value in assay [1] is on record as “better intracellular translocation profiles than PTD1”.

Turning to “KSH4: novel PTD sequence from the 7-time-concentrated library of Jurkat cells (KNAWKHSSCHHRHQI; Designed peptide to act as PTD(Protein Transduction Domain))”, the “intracellular translocation profile compared with PTD1” value in assay [1] is given as “better intracellular translocation profiles than PTD1”.

As for “KSH2: novel PTD sequence from the 7-time-concentrated library of Jurkat cells (WKCRRQCFRVLHHWN; Designed peptide to act as PTD(Protein Transduction Domain))”, the “localization of the peptide in HeLa cells” value in assay [2] (Example 5-2) is given as “localized as fringing the surface of the cell membrane”. Further, the “intracellular translocation profile compared with PTD1” value in assay [1] is recorded as “better intracellular translocation profiles than PTD1”.

As for “KSH10: novel PTD sequence from the 7-time-concentrated library of Jurkat cells (KRPTMRFRYTWNPMK; Designed peptide to act as PTD(Protein Transduction Domain))”, the “intracellular translocation profile compared with PTD1” value in assay [1] is “better intracellular translocation profiles than PTD1”.

For the substance “KSH6: novel PTD sequence from the 7-time-concentrated library of Jurkat cells (LITKQYRYPSRRRFN; Designed peptide to act as PTD(Protein Transduction Domain))”, in assay [1], the “intracellular translocation profile compared with PTD1” value is listed as “better intracellular translocation profiles than PTD1”.

As for “KSH3: novel PTD sequence from the 7-time-concentrated library of Jurkat cells (IPSRWKDQFWKRWHY; Designed peptide to act as PTD(Protein Transduction Domain))”, the “intracellular translocation profile compared with PTD1” value in assay [1] is “better intracellular translocation profiles than PTD1”.

Take “KSH1: novel PTD candidate sequence of 15 amino acids selected from the random peptide library (KLWMRWYSPTTRRYG; Designed peptide to act as PTD(Protein Transduction Domain))”: the “translocation into CHO cells” value in assay [1] (slide chamber, 25 μM) was “translocated into all CHO cells”. In addition, the “localization of the intracellularly transported peptide” value in assay [3] is “detected both in the nucleus and in cytoplasm”. In assay [3] (incubated 1 hour), the “fluorescence from the peptide in the cells” value is “fluorescence from the KSH1 peptide was observed”; the “fluorescence intensity compared with the positive control (PTD derived from HIV TAT, SEQ ID NO:50)” value is recorded as “higher than the fluorescence intensity of the positive control”; the “intracellular transferability among the peptides of the 11 selected sequences” value is recorded as “highest intracellular transferability”.

Consider “KSH1-7: KSH1 with threonine substituted with tryptophan to form a tryptophan cluster (KLWMRWYSPWTRRYG; Designed peptide to act as PTD(Protein Transduction Domain))”, for which, in assay [4] (setting [7]), the “intracellular translocation compared with KSH1 (in words)” value is reported as “accentuated remarkably; also recorded: clearly accentuated intracellular translocation”. Besides, the “intracellular translocation compared with KSH1” value in assay [4] (FACS, 12.5 μM) is on record as “not less than 10 times”; in assay [6] it was “not less than 3 times”. Moreover, the “intracellular translocation in HeLa cells compared with CHO cells” value in assay [2] (confocal microscopic analysis) was “lower”. The “intracellular translocation in Jurkat cells as compared to that of SEQ ID NO:37” value in assay [5] is “better intracellular translocation”.

With “KSH1-33: 13th arginine substituted with alanine and 10th threonine substituted with arginine (RLWMRWYSPRTRAYG; Designed peptide to act as PTD(Protein Transduction Domain))”, in assay [4] (setting [7]), the “intracellular translocation compared with KSH1 (in words)” value is “clearly accentuated intracellular translocation” and the “intracellular translocation compared with KSH1-1 (in words)” value is listed as “nearly equivalent or more than KSH1-1”. Moreover, the “intracellular translocation in HeLa cells (modified peptides with better translocation)” value in assay [2] (confocal microscopic analysis) was “better intracellular translocation”. Besides, in assay [5], the “intracellular translocation in Jurkat cells as compared to that of SEQ ID NO:37” value is “better intracellular translocation”.
